Columns and labels:
[1] = Growth inhibition of P-gp 170/MDR overexpressing human KB-vin10 cells after 72 hrs by methylene blue dye assay; assay type: functional; conditions: KB-VIN10, 72 h
NCI-H460 = assay: Growth inhibition of human H460 cells after 72 hrs by methylene blue dye assay; assay type: functional, cell-based; conditions: NCI-H460, 72 h
KB = assay: Growth inhibition of human KB cells after 72 hrs by methylene blue dye assay; assay type: functional, cell-based
MKN-45 = assay: Growth inhibition of human MKN45 cells after 72 hrs by methylene blue dye assay; assay type: functional, cell-based; conditions: MKN-45, 72 h
[2] = Displacement of [3H]colchicine from microtubule associated protein rich tubulin at 5 uM
[3] = Inhibition of microtubule associated protein rich tubulin polymerization
[4] = Displacement of [3H]colchicine from microtubule associated protein rich tubulin at 1 uM

Row | SMILES | IC50 [1] [nM] | IC50 (NCI-H460) [nM] | IC50 (KB) [nM] | IC50 (MKN-45) [nM] | inhibition [2] [%] | IC50 [3] [nM] | inhibition [4] [%]
1 | COc1ccc(NC(=O)c2cc(OC)c(OC)c(OC)c2)cc1 | > 5000 | > 5000 | > 5000 | > 5000 | – | – | –
2 | COc1cc(C(=O)n2c(C)cc3cc(N(C)C)ccc32)cc(OC)c1OC | 38 | 52 | 42 | 41 | 89 | 1500 | 72
3 | COC(=O)c1ccc2c(ccn2C(=O)c2cc(OC)c(OC)c(OC)c2)c1 | 5000 | > 5000 | > 5000 | > 5000 | – | – | –
4 | COc1ccc2c(c1)cc(C(C#N)N(C)C)n2C(=O)c1cc(OC)c(OC)c(OC)c1 (configuration not stated) | > 5000 | > 5000 | > 5000 | > 5000 | – | – | –
5 | COc1cc(C(=O)n2ccc3cc(C)ccc32)cc(OC)c1OC | 400 | 353 | 371 | 314 | – | – | –
6 | COc1ccc2c(c1)c(CN(C)C)cn2C(=O)c1cc(OC)c(OC)c(OC)c1 | > 5000 | > 5000 | > 5000 | > 5000 | – | – | –
7 | CCOC(=O)c1cc2cc(OC)ccc2n1C(=O)c1cc(OC)c(OC)c(OC)c1 | 185 | 198 | 230 | 101 | – | – | –
8 | CCOC(=O)c1c(C)n(C(=O)c2cc(OC)c(OC)c(OC)c2)c2ccc(OC)cc12 | > 5000 | > 5000 | > 5000 | > 5000 | – | – | –
9 | COc1cc(C(=O)n2ccc3c(N)c(OC)ccc32)cc(OC)c1OC | 2.4 | 5.4 | 1.2 | 3.1 | 93 | 900 | 71
10 | COc1ccc2c(c1)CC(C)N2C(=O)c1cc(OC)c(OC)c(OC)c1 (configuration not stated) | 372 | 413 | 370 | 257 | – | – | –
11 | COc1cc(C(=O)n2ccc3cc(CO)ccc32)cc(OC)c1OC | > 5000 | > 5000 | > 5000 | > 5000 | – | – | –
12 | COc1cc(C(=O)n2ccc3cc(CN(C)C)ccc32)cc(OC)c1OC | > 5000 | > 5000 | > 5000 | > 5000 | – | – | –
13 | COc1cc(C(=O)n2ccc3c([N+](=O)[O-])c(OC)ccc32)cc(OC)c1OC | > 5000 | > 5000 | > 5000 | > 5000 | – | – | –
14 | COc1cc(C(=O)n2ccc3cc4c(cc32)OCO4)cc(OC)c1OC | 587 | 559 | 575 | 521 | – | – | –
15 | COc1cc2c(c(OC)c1OC)-c1ccc(OC)c(=O)cc1[C@@H](NC(C)=O)CC2 [COLCHICINE] | 125 | – | 11.4 | 11 | – | 3000 | –
16 | COc1cc(C(=O)n2c(C)cc3c(O)c(OC)ccc32)cc(OC)c1OC | 0.3 | 0.5 | 0.3 | 0.6 | 97 | 600 | 94
17 | COc1cc(C(=O)n2ccc3cc(C=O)ccc32)cc(OC)c1OC | > 5000 | > 5000 | > 5000 | > 5000 | – | – | –
18 | COc1ccc(/C=C\c2cc(OC)c(OC)c(OC)c2)cc1O [COMBRETASTATIN A4] | – | 2.8 | 2.2 | 5.6 | 93 | – | 85
19 | COc1cc(C(=O)n2c(C)cc3cc(N)ccc32)cc(OC)c1OC | 312 | 334 | 345 | 156 | – | – | –
20 | COc1ccc2c(c1)CCN2C(=O)c1cc(OC)c(OC)c(OC)c1 | 84 | 98 | 89 | 53 | 55 | 2600 | 27
21 | COc1ccc2c(c1)cc(CO)n2C(=O)c1cc(OC)c(OC)c(OC)c1 | > 5000 | > 5000 | > 5000 | > 5000 | – | – | –
22 | COc1ccc2c(c1)CCCN2C(=O)c1cc(OC)c(OC)c(OC)c1 | 586 | 652 | 596 | 395 | – | > 5000 | –

From ChEMBL document CHEMBL1155109, “Discovery of 4-amino and 4-hydroxy-1-aroylindoles as potent tubulin polymerization inhibitors” (J Med Chem, 2008)
